Measurements as given in paper PMC12754617, “Ruthenium-enhanced curcumin derivatives target tumor growth and cancer-related inflammation in head and neck cancer models” (Frontiers in Oncology, 2025).

Legend:
CAL 27 = assay: Colony formation assay; format: cell-based, human; conditions: CAL 27, 24 h treatment at IC50
Procedure: (§1) Cells were seeded in six-well plates at a density of 100,000 cells per well (10,000 cells/200 μL) and grown for 24 h. […] Subsequently, cells were reseeded in new six-well plates at a density of 500 cells per well and grown for approximately 2 weeks. The cell culture medium was replaced every 2–3 days. When visible colonies appeared in the six-well plates, the culture was terminated, and the cells were washed twice with ice-cold PBS. The cells were then fixed with ice-cold methanol for 10 min and stained with 0.5% crystal violet solution for 30 min at room temperature. Experiments were performed in four independent replicates. The results were analyzed using the ImageJ plugin ColonyArea, which is optimized for standard analysis of colony formation assays. The plugin processes each well individually and determines not the number of colonies, but the area of the well covered by cells, also considering staining intensity.

Detroit 562 = assay: Colony formation assay; format: cell-based, human; conditions: Detroit 562, 24 h treatment at IC50
Procedure: as §1

FaDu = assay: Colony formation assay; format: cell-based, human; conditions: 24 h treatment at IC50
Procedure: as §1

HGF = assay: Colony formation assay; format: cell-based, human; conditions: 24 h treatment at IC50
Procedure: as §1

TR146 = assay: Colony formation assay; format: cell-based, human; conditions: TR146, 24 h treatment at IC50
Procedure: as §1

NF-κB p65 = target: T1, NF-κB p65 (Homo sapiens, UniProt Q04206); assay: Intracellular p65-NF-κB ELISA (DNA-binding activity); format: cell-based
T1 construct: endogenous in cells; host or cells: THP1-Blue NF-κB cells
T1 sequence (Q04206 whole entry): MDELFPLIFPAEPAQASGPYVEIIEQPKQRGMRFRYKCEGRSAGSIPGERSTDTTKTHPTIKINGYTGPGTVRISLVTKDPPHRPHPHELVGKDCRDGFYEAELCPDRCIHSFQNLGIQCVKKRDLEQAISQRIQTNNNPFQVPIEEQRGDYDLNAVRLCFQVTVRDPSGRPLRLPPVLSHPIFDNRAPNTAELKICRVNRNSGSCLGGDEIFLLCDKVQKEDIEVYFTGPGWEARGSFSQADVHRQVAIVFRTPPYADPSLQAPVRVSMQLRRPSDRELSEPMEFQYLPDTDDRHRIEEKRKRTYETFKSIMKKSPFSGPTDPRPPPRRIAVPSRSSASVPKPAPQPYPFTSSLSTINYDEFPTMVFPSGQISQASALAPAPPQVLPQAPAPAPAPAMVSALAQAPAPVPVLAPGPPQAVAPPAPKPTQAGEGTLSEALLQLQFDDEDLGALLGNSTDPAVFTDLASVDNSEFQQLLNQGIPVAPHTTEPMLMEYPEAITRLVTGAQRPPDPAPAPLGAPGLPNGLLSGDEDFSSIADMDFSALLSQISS
Description: To determine NF-κB p65 transcription factor levels by enzyme-linked immunosorbent assay (ELISA), an assay kit was used (Abcam, ab133112, Cambridge, UK). […] The supernatants were collected and used for the determination of intracellular p65-NF-κB by ELISA.
In this assay, a specific double-stranded DNA (dsDNA) sequence containing the NF-κB p65 response element is immobilized onto the wells of a 96-well plate. NF-κB p65 present in the sample binds specifically to these response elements. Bound p65 is subsequently detected using a primary antibody specific for NF-κB p65, followed by a horseradish peroxidase (HRP)-conjugated secondary antibody. The relevant background values were subtracted from the measured values. Absorbance was measured at 450 nm using an […] 200 PRO microplate reader (Tecan, Switzerland).

IL-6 = target: T2, IL-6 (Homo sapiens, UniProt P05231); assay: Sandwich ELISA assay IL-6; format: binding; conditions: 15 μM, 500 pg/mL IL-6
T2 construct: purchased PeproTech, Thermo Fisher Scientific
T2 sequence (P05231 30-212): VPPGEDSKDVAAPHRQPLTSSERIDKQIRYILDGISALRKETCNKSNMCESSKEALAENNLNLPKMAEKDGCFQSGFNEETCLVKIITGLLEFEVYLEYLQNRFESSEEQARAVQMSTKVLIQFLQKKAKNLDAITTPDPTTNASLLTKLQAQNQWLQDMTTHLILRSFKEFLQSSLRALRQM
Procedure: Human ELISA kits for IL-6, IL-6R, and IL-8 (Sigma-Aldrich, Merck, Germany) were used to quantify cytokine levels after treatment with complex 3 or 4. Briefly, 96-well plates precoated with specific antibodies were used to capture IL-6, IL-6R, and IL-8 from samples. […] Each sample was supplemented with 500 pg/mL of IL-6/IL-6R/IL-8. Positive control wells contained only the IL-6/IL-6R/IL-8 standard (PeproTech, Thermo Fisher Scientific, Waltham, Massachusetts, USA). […] After incubation, wells were washed, and biotinylated antihuman antibodies were added, followed by washing and addition of HRP-conjugated streptavidin. Finally, the TMB substrate was added to develop a color proportional to the cytokine concentration, and the reaction was stopped with the stop solution. Absorbance was measured at 450 nm using an […] 200 PRO microplate reader (TECAN, Switzerland).

Row | Structure (SMILES) | Cloning efficiency (%) (CAL 27) | Cloning efficiency (%) (Detroit 562) | Cloning efficiency (%) (FaDu) | Cloning efficiency (%) (HGF) | Cloning efficiency (%) (TR146) | Reduction of NF-κB (p65) levels (NF-κB p65; 1 μM, cellular extracts of THP1-Blue NF-κB cells, LPS) | NF-κB (p65) detected in cellular extracts (NF-κB p65; 8 μM) | Decrease of IL-6 concentration (IL-6)
1 | Cc1ccc(C(C)C)cc1.Cc1ccc(C(C)C)cc1.O=C1C(=Cc2ccnc3ccccc23)COCC1=Cc1ccnc2ccccc12.[Cl][Ru][Cl].[Cl][Ru][Cl] [Complex 3] | 39 ± 7% | 57 ± 8% | 73 ± 15% | 95 ± 6% | 66 ± 19% | approximately 70% | less than 5% | –
2 | Cc1ccc(C(C)C)cc1.Cc1ccc(C(C)C)cc1.O=C1C(=Cc2cccnc2)CCC1=Cc1cccnc1.[Cl][Ru][Cl].[Cl][Ru][Cl] [Complex 4] | – | – | – | – | – | – | – | approximately 30%
